US7135466B2 (Kirin Beer Kabushiki Kaisha, priority 1999, dated 2006)
Like-named read-outs stand apart in the source and are kept apart here.

Legend:
c-kit = target: T1, c-kit (Homo sapiens, UniProt P10721); experiment: Inhibitory activity against c-kit autophosphorylation (MO7e cells, h-SCF); format: cell-based; conditions: for inhibition at 1 µM: Mo7e, at 1000 nM; for IC50: MO7e cells, read-out: c-kit IC50
T1 construct: MO7e (human megakaryocytic leukemia cell line) which had been arrested for 20 hr; endogenous in cells; host or cells: MO7e human megakaryocytic leukemia cell line
Method in brief: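 In this cellular autophosphorylation assay, compound-treated MO7e cells (1 hr) were challenged with human stem cell factor at 50 ng/ml for 5 min; detection relied on PY-20 capture and anti-c-kit/HRP immunodetection at 450 nm.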

PDGF-Ra = target: T2, PDGF-Ra (Homo sapiens, UniProt P16234); experiment: Inhibitory activity against PDGF-Ra phosphorylation by PDGF-AA stimulation using G292; format: cell-based; conditions: for IC50: > means inhibition at indicated concentration not more than 50%, < and << not less than 50%, read-out: PDGF (E) IC50; for inhibition at 0.1 µM: G292, at 100 nM, read-out: PDGF (E) inhibition (%) at 100 nM
T2 construct: host or cells: G-292 human osteosarcoma cells
Method in brief: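 In G-292 osteosarcoma cells kept overnight in 0.1% FBS, compound exposure (1 hr, 37 °C) preceded PDGF-AA stimulation at 50 ng/ml for 5 min; receptor phosphotyrosine was then detected by PY-20 capture ELISA.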

[1] = figure in parentheses in >100( )
[2] = figure within parentheses in >100( )
[3] = figure within parentheses in −( ) or >1000( )

T2 sequence (P16234 24-1089): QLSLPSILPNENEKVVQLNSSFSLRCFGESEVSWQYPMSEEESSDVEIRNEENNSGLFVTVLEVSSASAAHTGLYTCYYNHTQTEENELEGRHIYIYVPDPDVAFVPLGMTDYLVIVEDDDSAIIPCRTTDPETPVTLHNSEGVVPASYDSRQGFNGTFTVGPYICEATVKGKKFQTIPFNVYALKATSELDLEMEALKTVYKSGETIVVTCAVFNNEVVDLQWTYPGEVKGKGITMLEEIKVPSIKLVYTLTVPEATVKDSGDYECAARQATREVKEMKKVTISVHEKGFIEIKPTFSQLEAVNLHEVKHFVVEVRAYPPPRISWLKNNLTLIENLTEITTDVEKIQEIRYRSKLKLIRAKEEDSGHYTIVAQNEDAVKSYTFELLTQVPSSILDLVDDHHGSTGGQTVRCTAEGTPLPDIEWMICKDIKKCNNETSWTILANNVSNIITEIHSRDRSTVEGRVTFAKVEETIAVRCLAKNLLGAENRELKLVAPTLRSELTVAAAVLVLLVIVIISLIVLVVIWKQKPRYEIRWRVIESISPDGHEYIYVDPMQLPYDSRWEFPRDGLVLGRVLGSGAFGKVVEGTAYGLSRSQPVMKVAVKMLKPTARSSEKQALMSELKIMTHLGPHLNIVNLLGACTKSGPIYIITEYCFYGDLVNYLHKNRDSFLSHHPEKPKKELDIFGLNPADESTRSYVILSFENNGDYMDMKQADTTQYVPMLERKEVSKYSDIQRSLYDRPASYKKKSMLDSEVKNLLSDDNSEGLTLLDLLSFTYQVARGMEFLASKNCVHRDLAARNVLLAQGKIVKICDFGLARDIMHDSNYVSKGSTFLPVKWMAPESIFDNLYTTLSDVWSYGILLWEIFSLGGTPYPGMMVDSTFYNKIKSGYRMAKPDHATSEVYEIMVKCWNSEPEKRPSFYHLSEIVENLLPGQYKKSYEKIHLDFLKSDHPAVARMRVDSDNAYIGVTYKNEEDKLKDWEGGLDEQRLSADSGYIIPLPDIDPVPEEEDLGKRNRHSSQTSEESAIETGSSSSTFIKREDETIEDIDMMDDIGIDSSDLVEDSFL
T1 sequence (P10721 26-976): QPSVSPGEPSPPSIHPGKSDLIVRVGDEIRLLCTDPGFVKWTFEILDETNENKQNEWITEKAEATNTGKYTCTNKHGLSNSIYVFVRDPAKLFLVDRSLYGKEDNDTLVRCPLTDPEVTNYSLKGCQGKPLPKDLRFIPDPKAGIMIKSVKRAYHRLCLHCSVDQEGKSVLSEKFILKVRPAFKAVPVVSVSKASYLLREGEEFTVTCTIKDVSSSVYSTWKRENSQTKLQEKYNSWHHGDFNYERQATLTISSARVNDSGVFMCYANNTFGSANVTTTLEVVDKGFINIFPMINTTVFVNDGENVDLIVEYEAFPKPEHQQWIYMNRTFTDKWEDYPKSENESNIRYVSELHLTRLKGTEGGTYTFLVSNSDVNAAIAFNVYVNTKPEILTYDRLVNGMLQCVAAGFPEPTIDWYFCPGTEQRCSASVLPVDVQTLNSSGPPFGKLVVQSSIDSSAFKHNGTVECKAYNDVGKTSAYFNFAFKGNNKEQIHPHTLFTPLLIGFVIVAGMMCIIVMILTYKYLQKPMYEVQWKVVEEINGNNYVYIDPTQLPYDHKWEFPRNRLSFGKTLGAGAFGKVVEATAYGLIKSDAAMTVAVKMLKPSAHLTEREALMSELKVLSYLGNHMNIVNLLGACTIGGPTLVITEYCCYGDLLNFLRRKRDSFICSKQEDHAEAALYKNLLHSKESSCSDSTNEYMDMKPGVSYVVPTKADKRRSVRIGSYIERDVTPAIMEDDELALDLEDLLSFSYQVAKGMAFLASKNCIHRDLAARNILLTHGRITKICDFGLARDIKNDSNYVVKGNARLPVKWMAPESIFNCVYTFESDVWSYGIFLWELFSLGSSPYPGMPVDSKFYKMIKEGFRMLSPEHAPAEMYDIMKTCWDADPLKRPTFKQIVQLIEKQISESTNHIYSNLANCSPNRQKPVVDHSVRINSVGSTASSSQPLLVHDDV

Row | Compound | IC50 (PDGF-Ra) | IC50 (c-kit; 50 ng/ml h-SCF) | IC50 (c-kit; h-SCF 50 ng/ml) | IC50 (PDGF-Ra; Pharmacological Test Example 1) | other results
1 | COc1cc2nccc(Oc3ccc(NC(=S)NC(=O)c4ccc(I)cc4)c(F)c3)c2cc1OC [Example 967, N-{4-[(6,7-Dimethoxy-4-quinolyl)oxy]-2-fluorophenyl}-N′-(4-iodobenzoyl)thiourea] | 20 nM |  |  |  | inhibition at 1 µM (c-kit; figure in parentheses in −( )): 15%
2 | COc1cc2nccc(Oc3ccc(NC(=S)NC(=O)c4ccc(F)cc4F)c(Cl)c3)c2cc1OC [Example 1202, N-{2-Chloro-4-[(6,7-dimethoxy-4-quinolyl)oxy]phenyl}-N′-(2,4-difluorobenzoyl)thiourea] | 50 nM |  |  |  | inhibition at 1 µM (c-kit; figure in parentheses in −( )): 15%
3 | CCCCC(=O)NC(=S)Nc1ccc(Oc2ncnc3cc(OC)c(OC)cc23)cc1 [Example 720, N-{4-[(6,7-Dimethoxy-4-quinazolinyl)oxy]phenyl}-N′-pentanoylthiourea] | 42 nM | 30 nM |  |  | 
4 | COc1cc2nccc(Oc3cc(C)c(NCCOc4c(OC)cccc4OC)cc3C)c2cc1OC [Example 896, N-[2-(2,6-Dimethoxyphenoxy)ethyl]-N-{4-[(6,7-dimethoxy-4-quinolyl)oxy]-2,5-dimethylphenyl}amine] | 96 nM |  |  |  | inhibition at 1 µM (c-kit; figure in parentheses in −( )): 31%
5 | COc1cc2nccc(Oc3cc(C)c(NC(=O)Oc4ccc(-c5ccccc5)cc4)cc3C)c2cc1OC [Example 295, 4-Phenylphenyl N-{4-[(6,7-dimethoxy-4-quinolyl)oxy]-2,5-dimethylphenyl}carbamate] |  |  | 178 nM | > 100 nM | inhibition at 0.1 µM (PDGF-Ra; [1]): 45%
6 | CCCC(CCN1CCOCC1)OC(=O)Nc1ccc(Oc2ncnc3cc(OC)c(OC)cc23)cc1 (stereo not shown) [Example 440] | 47 nM | 351 nM |  |  | 
7 | C=C(C)COC(=O)Nc1cc(C)c(Oc2ccnc3cc(OC)c(OC)cc23)cc1C [Example 405, 2-Methylallyl N-{4-[(6,7-dimethoxy-4-quinolyl)oxy]-2,5-dimethylphenyl}carbamate] | 46 nM | 126 nM |  |  | 
8 | COc1cc2ncnc(Oc3ccc(NC(=O)OCCc4cccc(C(F)(F)F)c4)c(Cl)c3)c2cc1OC [Example 86] |  |  | 842 nM | 13 nM | 
9 | COc1cc2nccc(Oc3ccc(NC(=S)NC(=O)N4CCCC4)cc3Cl)c2cc1OC [Example 1051, N-{3-Chloro-4-[(6,7-dimethoxy-4-quinolyl)oxy]phenyl}-N′-tetrahydro-1H-1-pyrrolylcarbonylthiourea] | 14 nM |  |  |  | IC50 (c-kit; h-SCF stimulation): 418 nM
10 | COc1cc2ncnc(Oc3ccc(NC(=O)OCC4CC4)cc3)c2cc1OC [Example 383, Cyclopropylmethyl N-{4-[(6,7-dimethoxy-4-quinazolinyl)oxy]phenyl}carbamate] |  |  | 90 nM | 74 nM | 
11 | COc1cc2nccc(Oc3ccc(NC(=S)NC(=O)C4CC4C)cc3Cl)c2cc1OC (stereo not shown) [Example 1190, N-{3-Chloro-4-[(6,7-dimethoxy-4-quinolyl)oxy]phenyl}-N′-[(2-methylcyclopropyl)carbonyl]thiourea] | 24 nM |  |  |  | IC50 (c-kit; h-SCF stimulation): 240 nM
12 | COc1cc2ncnc(Oc3ccc(NC(=O)OCC4CCCCC4)cc3)c2cc1OC [Example 340, Cyclohexylmethyl N-{4-[(6,7-dimethoxy-4-quinazolinyl)oxy]phenyl}carbamate] |  |  | 107 nM | < 10 nM | 
13 | COc1cccc(NCCOc2ccc(Oc3ccnc4cc(OC)c(OC)cc34)cc2)c1 [Example 779, N-(2-{4-[(6,7-Dimethoxy-4-quinolyl)oxy]phenoxy}ethyl)-N-(3-methoxyphenyl)amine] | < 10 nM | 107 nM |  |  | 
14 | COc1cc2nccc(Oc3cc(C)c(NC(=O)OC4CCCC4)cc3C)c2cc1OC [Example 364, Cyclopentyl N-{4-[(6,7-dimethoxy-4-quinolyl)oxy]-2,5-dimethylphenyl}carbamate] |  |  | 98 nM | 29 nM | 
15 | COc1cc2nccc(Oc3cc(C)c(NC(=S)NCCCN4CCOCC4)cc3C)c2cc1OC [Example 553, N-{4-[(6,7-Dimethoxy-4-quinolyl)oxy]-2,5-dimethylphenyl}-N′-[3-(1-morpholino)propyl]thiourea] | > 100 nM | 320 nM |  |  | inhibition at 0.1 µM (PDGF-Ra; [2]): 40%
16 | COc1cc(Oc2ncnc3cc(OC)c(OC)cc23)ccc1NC(=O)NCCN1CCCCC1 [Example 680, N-{4-[(6,7-Dimethoxy-4-quinazolinyl)oxy]-2-methoxyphenyl}-N′-(2-piperidinoethyl)urea] | 35 nM | 570 nM |  |  | 
17 | COc1cc2nccc(Oc3cc(C)c(NC(=S)NCCN(C(C)C)C(C)C)cc3C)c2cc1OC [Example 555, N-{4-[(6,7-Dimethoxy-4-quinolyl)oxy]-2,5-dimethylphenyl}-N′-(2-diisopropylaminoethyl)thiourea] | > 100 nM |  |  |  | inhibition at 1 µM (c-kit; [3]): 39%; inhibition at 0.1 µM (PDGF-Ra; [2]): 29%

Row | Compound | IC50 (PDGF-Ra) | IC50 (c-kit; 50 ng/ml h-SCF) | IC50 (c-kit; h-SCF 50 ng/ml) | IC50 (PDGF-Ra; Pharmacological Test Example 1) | other results
18 | COc1cc2nccc(Oc3ccc(NC(=O)OCCc4cccc(C(F)(F)F)c4)c(C)c3C)c2cc1OC [Example 83, 3-(Trifluoromethyl)phenethyl N-{4-[(6,7-dimethoxy-4-quinolyl)oxy]-2,3-dimethylphenyl]carbamate] |  |  | 253 nM | 16 nM | 
19 | COc1cc2ncnc(Oc3ccc(NC(=O)OCC4CCCC4)c(Cl)c3)c2cc1OC [Example 398, Cyclopentylmethyl N-{2-chloro-4-[(6,7-dimethoxy-4-quinazolinyl)oxy]phenyl}carbamate] |  |  | 462 nM | 33 nM | 
20 | CCCCCCOC(=O)Nc1ccc(Oc2ncnc3cc(OC)c(OC)cc23)cc1[N+](=O)[O-] [Example 509, Hexyl N-{4-[(6,7-dimethoxy-4-quinazolinyl)oxy]-2-nitrophenyl}carbamate] | 26 nM | 164 nM |  |  | 
21 | COc1cc2ncnc(Oc3ccc(NC(=O)OCc4ccccc4Cl)c([N+](=O)[O-])c3)c2cc1OC [Example 504, 2-Chlorobenzyl N-{4-[(6,7-dimethoxy-4-quinazolinyl)oxy]-2-nitrophenyl}carbamate] | 46 nM |  |  |  | inhibition at 1 µM (c-kit; [3]): 42%
22 | COc1cc2ncnc(Oc3ccc(N(C)C(=O)OCC4CCCCCC4)cc3)c2cc1OC [Example 484] | 12 nM | 75 nM |  |  | 
23 | COc1cc2ncnc(Oc3ccc(NC(=O)N4CCN(Cc5ccccc5)CC4)cc3)c2cc1OC [Example 690, N1-{4-[(6,7-Dimethoxy-4-quinazolinyl)oxy]phenyl}-4-benzyl-1-piperazinecarboxamide] | > 100 nM |  |  |  | inhibition at 1 µM (c-kit; [3]): 11%; inhibition at 0.1 µM (PDGF-Ra; [2]): 10%
24 | COc1ccccc1CC(=O)NC(=S)Nc1ccc(Oc2ccnc3cc(OC)c(OC)cc23)cc1 [Example 733, N-{4-[(6,7-Dimethoxy-4-quinolyl)oxy]phenyl}-N′-[2-(2-methoxyphenyl)acetyl]thiourea] | 29 nM | 186 nM |  |  | 
25 | COc1cc2nccc(Oc3ccc(NC(=O)OCCCSc4cc(C)ccc4C)cc3)c2cc1OC [Example 169, 3-[(2,5-Dimethylphenyl)sulfanyl)propyl N-{4-[(6,7-dimethoxy-4-quinolyl)oxy]phenyl}carbamate] |  |  | 31 nM | < 10 nM | 
26 | CCN(C(=O)OC1CCCCCC1)c1ccc(Oc2ncnc3cc(OC)c(OC)cc23)cc1Cl [Example 489, Cycloheptyl N-{2-chloro-4-[(6,7-dimethoxy-4-quinazolinyl)oxy]phenyl}-N-ethylcarbamate] | 58 nM | 637 nM |  |  | 
27 | COc1ccc(C(C)OC(=O)Nc2ccc(Oc3ncnc4cc(OC)c(OC)cc34)cc2Cl)cc1 (stereo not shown) [Example 36, 1-(4-Methoxyphenyl)ethyl N-{2-chloro-4-[(6,7-dimethoxy-4-quinazolinyl)oxy]phenyl}carbamate] |  |  |  | > 100 nM | inhibition at 1 µM (c-kit; figure in parentheses in −( )): 19%; inhibition at 0.1 µM (PDGF-Ra; [1]): 34%
28 | COc1cc2ncnc(Oc3ccc(NC(=O)OCCC4CCCCC4)c(Cl)c3)c2cc1OC [Example 357, 2-Cyclohexylethyl N-{2-chloro-4-[(6,7-dimethoxy-4-quinazolinyl)oxy]phenyl}carbamate] |  |  | 116 nM | < 10 nM | 
29 | COc1cc2ncnc(Oc3ccc(NC(=O)OCCCOc4ccccc4OC)cc3)c2cc1OC [Example 160, 3-(2-Methoxyphenoxy)propyl N-{4-[(6,7-dimethoxy-4-quinazolinyl)oxy]phenyl}carbamate] |  |  | 52 nM | 16 nM | 
30 | COc1cc2nccc(Oc3ccc(NC(=S)NC(=O)C4CCCC4)cc3Cl)c2cc1OC [Example 1182, N-{3-Chloro-4-[(6,7-dimethoxy-4-quinolyl)oxy]phenyl}-N′-cyclopentylcarbonylthiourea] | < 10 nM |  |  |  | IC50 (c-kit; h-SCF stimulation): 206 nM
31 | COc1cc2ncnc(Oc3ccc(NC(=S)NC(=O)c4ccccc4C)cc3)c2cc1OC [Example 927, N-{4-[(6,7-Dimethoxy-4-quinazolinyl)oxy]phenyl}-N′-(2-methylbenzoyl)thiourea] | 5 nM |  |  |  | IC50 (c-kit; h-SCF stimulation): 623 nM
32 | CCN(CC)CCOc1ccc(Oc2ncnc3cc(OC)c(OC)cc23)cc1 [Example 807, N-(2-{4-[(6,7-Dimethoxy-4-quinazolinyl)oxy]phenoxy}ethyl)-N,N-diethylamine] | > 100 nM |  |  |  | inhibition at 1 µM (c-kit; [3]): 20%; inhibition at 0.1 µM (PDGF-Ra; [2]): 20%
33 | COc1cc2ncnc(Oc3ccc(NC(=S)NN4CCCCC4)cc3)c2cc1OC [Example 524, N-{4-[(6,7-Dimethoxy-4-quinazolinyl)oxy]phenyl}-N′-(1-piperidinyl)thiourea] | > 100 nM |  |  |  | inhibition at 1 µM (c-kit; [3]): 21%; inhibition at 0.1 µM (PDGF-Ra; [2]): 21%
